“Also recorded” adds a separate entry of the source.
Columns and labels:
[1] = Automated hematocrits from tail bleeds of tumor-bearing SCID mice; type: in vivo, CB 17-SCID/SCID mice; set-up: Hematocrits: unit not given here; details: for Hematocrits: mice bearing small subcutaneous tumors
Procedure: Automated hematocrits were obtained from tail bleeds performed on three mice selected randomly from each group on days −15, −7, 0, and +7. No mouse was bled twice. On day 7, mice were sacrificed and necropsies were performed. Tumors were excised and measured in three dimensions with vernier calipers. Tumor volume was calculated as follows.
(§1) In another illustration of this embodiment, cisplatin was administered twice during the treatment. In additional forty experimental mice at six weeks of age, 2 mm portions of human ovarian cancer xenografts were implanted. Treatment groups were randomly assigned three days after implantation. Group I animals (controls) received 100 μl of PBS three times per week subcutaneously from day −15 to day +13 and 300 μl PBS ip on day 0 and 7. Mice in Group II (EPO group) received EPO subcutaneously at a dose of 20 units in 100 μl of PBS three times per week from day −15 to day +13 and 300 μl of PBS ip on day 0 and 7. Mice in Group III (cisplatin group) received cisplatin ip at a dose of 5 mg/kg in 300 μl of PBS on day 0 and 7, and 100 μl of subcutaneous PBS three times per week from day −15 to day +13. Mice in Group IV (EPO+cisplatin group) received subcutaneous EPO injections as in group 2 three times per week from day −15 to day +13 and ip cisplatin injections as in group 3 on day 0 and 7. Mice were observed until day +15.
Automated hematocrits were obtained as described above on days −15, −7, 0, +7, and +14. The change in hematocrit relative to the initial hematocrit was plotted over time. Serial measurements of tumor nodules were made in two dimensions using vernier calipers starting on day zero. On day zero, tumors had grown to approximately 4 mm×5 mm in size in each group. Tumor volumes were calculated on days 0, +1, +3, +5, +7, +9, +11, +13 and +15 using the formula.
Percent tumor growth was calculated for each index day compared to day 0 and plotted over time. Statistical analysis included Student T tests for the overall tumor growth in the large GFP tumor experiment. The growth curves developed in the smaller subcutaneous tumor group and the curves representing change in the hematocrit over time were analyzed by analysis of variance. Significance was defined by P values less than 0.05.

[2] = system: human ovarian cancer xenografts (papillary serous adenocarcinoma of the ovary); experiment: Large gonadal fat pad (GFP) human ovarian cancer xenograft in SCID mice, single cisplatin dose, tumor growth; type: in vivo, CB 17-SCID/SCID mice; details: large GFP tumors; cisplatin 5 mg/kg ip day 0; EPO 20 units sc three times per week day −15 to +6; necropsy day 7
Procedure: To illustrate this embodiment, experiments were carried out in immunodeficient SCID mice bearing human ovarian cancer.
Eighty CB 17-SCID/SCID mice (Taconic Labs) were used. The animals were kept under sterile and light-controlled conditions. Portions of tumors from patients with recurrent stage IIIC, grade 3, papillary serous adenocarcinoma of the ovary were implanted and propagated in SCID mice by procedures well known to those skilled in the art. Briefly, xenografts were grown and passaged at least five times prior to the implantation of tumors into experimental animals. […]
Automated hematocrits were obtained from tail bleeds performed on three mice selected randomly from each group on days −15, −7, 0, and +7. […] Tumors were excised and measured in three dimensions with vernier calipers. Tumor volume was calculated as follows. […]
The percent growth of the tumor was calculated using the formula: […]
(§2) Percent tumor growth was calculated for each index day compared to day 0 and plotted over time. […] The growth curves developed in the smaller subcutaneous tumor group and the curves representing change in the hematocrit over time were analyzed by analysis of variance. […]

[3] = Performance status (morbidity/mortality criteria) of treated tumor-bearing mice; type: in vivo, CB 17-SCID/SCID mice; set-up: key to Performance status score, individual mice: A grade of 0 equaled normal health; a grade of 5+ equaled death; details: for Performance status score, individual mice: mouse no. 1-10, Table 2 (counts match day +14)
Procedure: To illustrate this embodiment, performance status of mice from Example 1 receiving the various treatments was evaluated. Performance status was assessed on days 0, +7, and +14 using five objective criteria associated with morbidity and mortality in experimental mice. The five criteria were (1) ruffled fur; (2) weakness/lethargy; (3) 20% weight loss compared to the mean weight of control animals; (4) kyphotic hunched posturing; and (5) death. A grade of 0 equaled normal health and a grade of 5+ equaled death.

[4] = in vivo; cited from earlier work
[5] = system: human ovarian cancer xenografts; experiment: Small subcutaneous human ovarian cancer xenograft in SCID mice, cisplatin on day 0 and 7, tumor growth curves; type: in vivo, CB 17-SCID/SCID mice; details: subcutaneous tumor nodules; cisplatin 5 mg/kg ip day 0 and 7; EPO 20 units sc three times per week day −15 to +13; to day +15; FIG. 1
Procedure: as §1, with “Mice in Group IV (EPO+cisplatin group) received subcutaneous EPO injections as in group 2 three times per week from day −15 to day +13 and ip cisplatin injections as in group 3 on day 0 and 7. Mice were observed until day +15.” left out
Automated hematocrits were obtained as described above on days −15, −7, 0, +7, and +14. […] Tumor volumes were calculated on days 0, +1, +3, +5, +7, +9, +11, +13 and +15 using the formula. […]
as §2

Compound	Hematocrits ([1]; Week 0)	Hematocrits ([1]; Week +1)	Hematocrits ([1]; Week +2)	Hematocrits ([1]; Week −1)	Hematocrits ([1]; Week −2 (initial value))	Decrease in the hematocrit ([1]; over time vs initial value, FIG. 2) [%]	Tumor growth (percent tumor growth, tumor size at necropsy) [2]	Mice with 20% weight loss compared to controls ([3]; day +7, 10 mice per group)	Mice with ruffled fur ([3]; day +7, 10 mice per group)	Mice with signs of weakness/lethargy ([3]; day +7, 10 mice per group)	Mice with hunched posturing ([3]; day +14, 10 mice per group)	Mortalities ([3]; day +14, 10 mice per group)	Performance status score, individual mice [3]	Half life in the plasma [4]	Increase in the hematocrit compared to its initial value ([1]; vs week −2, p<0.01 vs controls, FIG. 2)	Tumor growth curves (percent tumor growth vs day 0) [5]	Performance status scores ([3]; day +7, all mice of the group)	Performance status score, Total ([3]; sum over 10 mice, Table 2)
N.N.[Cl][Pt][Cl] [CISPLATIN, cis-diamine dichloro platinum]	39.8 ± 0.3	40.7 ± 0.1	33.1 ± 0.3	39.8 ± 0.2	39.8 ± 0.2	20	significant difference in the tumor growth was observed in the groups treated with and without cisplatin	6	all	all	3	4	+ + +; also recorded: + + + +; also recorded: + + + + +	–	–	–	–	–
EPO: erythropoietin, hormone regulating red blood cell production; used as hematocrit elevator	48.9 ± 0.3	49.3 ± 0.3	53.6 ± 0.4	44.9 ± 0.2	39.5 ± 0.2	–	No difference was observed between the controls and the EPO group	–	–	–	–	–	0	about 5 hours	25-35%	no difference was observed between the controls and the EPO group	zero	0

Reference: patent US6620779B2, “Method of enhancing the efficacy of anti-tumor agents” (Health Research Inc., priority 1999, dated 2003)
